Among the test systems are ACHN renal; CCRF-CEM leukemia; HCC-2998 colon; HT29 colon; KM12 colon; M14 melanoma; MALME-3M melanoma; MCF7 breast; NCI-H522 lung; OVCAR-4 ovarian; PC-3 prostate; SNB-19 CNS; T-47D breast; IGROV1 ovarian.
Holding throughout (assay): growth of human tumour cells (NCI), 48 h

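Following 48 hours of exposure in 96-well plates, responses at five concentrations were used to interpolate endpoints linearly. TGI: concentration producing complete growth inhibition.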

Consider `C=C(C)C1CC[C@@](C)(O)[C@H](C#N)C1` (stereo not given in full), for which the TGI in the test on ACHN renal, in the test on CCRF-CEM leukemia, in the test on HCC-2998 colon, in the test with HT29 colon, with KM12 colon and in the test on M14 melanoma was above 100 µM throughout. Moreover, the TGI in the test with MALME-3M melanoma, with MCF7 breast, in the test with NCI-H522 lung, in the test with OVCAR-4 ovarian, in the test on PC-3 prostate and in the test on SNB-19 CNS was above 100 µM in each case. Further, the TGI with T-47D breast was above 100 µM.
In the case of `CCOC(=O)CN1C(=O)NC(C)(c2ccccc2)C1=O` (stereo not given), the TGI with ACHN renal, with CCRF-CEM leukemia, in the test with HCC-2998 colon, in the test with HT29 colon, in the test with IGROV1 ovarian and in the test with KM12 colon was above 100 µM each time. The TGI in the test on M14 melanoma, in the test on MCF7 breast, with NCI-H522 lung, with OVCAR-4 ovarian, with PC-3 prostate and with SNB-19 CNS was above 100 µM in each case. Further, the TGI with T-47D breast is above 100 µM.
For `C=C1CN=C(Nc2ccc(Cl)cc2)S1`, the TGI with ACHN renal, in the test with CCRF-CEM leukemia, in the test with HCC-2998 colon, in the test with HT29 colon, in the test with IGROV1 ovarian and with KM12 colon was above 100 µM throughout. Further, the TGI in the test on M14 melanoma, with MALME-3M melanoma, with MCF7 breast, with OVCAR-4 ovarian, in the test with PC-3 prostate and in the test with SNB-19 CNS was above 100 µM in each case. Also, the TGI in the test on T-47D breast is above 100 µM.
For the molecule `COCn1cc(C2=C(C)C(=O)C(C)=C(C)C2=O)cn1`, the TGI in the test with ACHN renal is above 100 µM; with CCRF-CEM leukemia, 60.8 µM; in the test with HCC-2998 colon, above 100 µM; with HT29 colon, above 100 µM; in the test on IGROV1 ovarian it was above 100 µM; in the test with KM12 colon it was above 100 µM. The TGI in the test with M14 melanoma was above 100 µM; in the test on MALME-3M melanoma, above 100 µM; in the test on MCF7 breast it was above 100 µM; with OVCAR-4 ovarian it was 31.7 µM; with PC-3 prostate, above 100 µM; in the test on SNB-19 CNS, above 100 µM. The molecule further registered a TGI with T-47D breast of 56.1 µM.
For the molecule `N=c1oc2ccccc2cc1C(=O)Nc1cccc2ccccc12`, the TGI with ACHN renal, with CCRF-CEM leukemia, with HCC-2998 colon, in the test on HT29 colon, in the test on IGROV1 ovarian and with KM12 colon was above 100 µM in each case. Also, the TGI in the test on M14 melanoma, in the test on MALME-3M melanoma, with MCF7 breast, in the test on OVCAR-4 ovarian, in the test on PC-3 prostate and with SNB-19 CNS was above 100 µM throughout. The molecule also displayed a TGI in the test with T-47D breast above 100 µM.
`O=C1CSC(c2ccccc2O)N1c1ccc2c(c1)Oc1c(Cl)c3c(c(Cl)c1=N2)Oc1cc(N2C(=O)CSC2c2ccccc2O)ccc1N=3` (stereo not given): the TGI was 55.1 µM in the test with ACHN renal; above 100 µM in the test with CCRF-CEM leukemia; above 100 µM in the test on HCC-2998 colon; above 100 µM with HT29 colon; above 100 µM with IGROV1 ovarian; above 100 µM in the test with KM12 colon. In addition, the TGI with M14 melanoma was above 100 µM; in the test on MCF7 breast, above 100 µM; in the test on NCI-H522 lung, 52 µM; in the test on OVCAR-4 ovarian it was above 100 µM; in the test on PC-3 prostate, above 100 µM; with T-47D breast it was above 100 µM.
Regarding `O=C(c1cscc1CCc1ccccc1)c1cscc1CCc1ccccc1`, the TGI with ACHN renal, in the test with CCRF-CEM leukemia, in the test with HCC-2998 colon, with IGROV1 ovarian, in the test on KM12 colon and with M14 melanoma was above 100 µM throughout. Further, the TGI in the test with MALME-3M melanoma, in the test with MCF7 breast, in the test with NCI-H522 lung, with OVCAR-4 ovarian, in the test with PC-3 prostate and with SNB-19 CNS was above 100 µM throughout. This molecule also displayed a TGI in the test with T-47D breast above 100 µM.
As to `CSc1c(C#N)c(=O)n(N)c2c1c(C)nn2-c1ccccc1`, the TGI with CCRF-CEM leukemia is 76.3 µM; with HCC-2998 colon, above 100 µM; in the test on HT29 colon, 65.4 µM; with KM12 colon it was above 100 µM; in the test on M14 melanoma, above 100 µM; with MALME-3M melanoma it was 70.2 µM. Also, the TGI with MCF7 breast was 39.2 µM; in the test on NCI-H522 lung it was above 100 µM; in the test on OVCAR-4 ovarian, 96.1 µM; in the test with PC-3 prostate, 76.7 µM; in the test on SNB-19 CNS it was above 100 µM; in the test with T-47D breast, 81 µM.
On to `CN1CCN(c2cc3nc(-c4ccc(Cl)cc4)[nH]c3cc2F)CC1`, for which the TGI was 29.8 µM in the test with ACHN renal; 82.8 µM with CCRF-CEM leukemia; 16.7 µM in the test with HCC-2998 colon; 36.1 µM in the test with IGROV1 ovarian; above 45.2 µM in the test on KM12 colon; 8.4 µM with M14 melanoma. For the same molecule, the TGI is 23.4 µM in the test on MALME-3M melanoma; above 45.2 µM in the test on MCF7 breast; 32 µM in the test with NCI-H522 lung; above 62.7 µM in the test on OVCAR-4 ovarian; 40.8 µM in the test on PC-3 prostate; above 81.8 µM in the test on SNB-19 CNS. The molecule further gave a TGI in the test on T-47D breast of 65.7 µM.
`O=Cc1ccc2ccocc1-2`: the TGI in the test on ACHN renal, with CCRF-CEM leukemia, with HCC-2998 colon, in the test on HT29 colon, in the test with IGROV1 ovarian and in the test with KM12 colon was above 100 µM throughout. Further, the TGI in the test with M14 melanoma, in the test with MCF7 breast, with NCI-H522 lung, in the test on OVCAR-4 ovarian, in the test on PC-3 prostate and in the test on SNB-19 CNS was above 100 µM each time. Moreover, the TGI with T-47D breast was above 100 µM.
For the molecule `CC1(C)OCC(CO)(CO)CO1`, the TGI in the test on ACHN renal, with CCRF-CEM leukemia, in the test with HCC-2998 colon, with HT29 colon, in the test on KM12 colon and in the test with M14 melanoma was above 100 µM each time. Moreover, the TGI in the test on MCF7 breast, in the test with NCI-H522 lung, in the test on OVCAR-4 ovarian, with PC-3 prostate, with SNB-19 CNS and in the test on T-47D breast was above 100 µM throughout.
